Results as given in EP1383722B1, “INHIBITION OF POPCORN POLYMER GROWTH” (BAKER HUGHES INCORPORATED, priority 2001, dated 2002).

Test: Popcorn Polymer Glass Tube Reaction Test Method
Details: total additive 250 ppm, 60°C, 14 to 28 days
Method: The Popcorn Polymer Glass Tube Reaction Method allows for the evaluation of many samples at once, and may be described as follows: • 1. Obtain butadiene popcorn polymer "seeds" (in the Examples of this invention the seeds were obtained in 1996 from a BD holding tank). Activate popcorn polymer "seeds" overnight with a 150 watt flood lamp. The "seeds" are firstplaced in a petri dish and covered. Then they are exposed to white light from the lamp for approximately 20 hours. The lamp is positioned 12 inches (30.5 cm) above the dish. • 2. To glass reaction vessels add 1 ml of deionized water. To the glass reaction vessel and water place approximately 0.6200 gms of BD popcorn "seed". Add inhibitor, if any, into the water and seal the reaction vessel with a TEFLON adapter. Completely seal off the adapter by use of a metal adapter plug. Using a gas-tight syringe, inject 15mls of butadiene monomer into the reaction vessel by way of a septum port located at the top of the TEFLON adapter. • 3. Next, place the reaction vessel containing BD popcorn "seed" and butadiene monomer into a block incubator bath which is capable of maintaining a constant temperature of 60°C. Allow the test to run for 14 to 28 days. Remove the reaction vessel from the incubator bath. • 4. Vent the BD out of the vessel by slowly opening the metal adapter plug. Slowly open the reaction vessel and decant the water/BD mixture. Rinse the wet polymer with n-heptane until most of the n-heptane is essentially clear of haze. Blow dry nitrogen into the reaction vessel to further dry the poly-mer. Remove the popcorn polymer carefully with tweezers and spatula and place in a 100 ml beaker. Wash the popcorn polymer material three times with 30 ml aliquots of n-heptane. • 5. Transfer the popcorn polymer sample into a petri dish. Place dish into a vacuum oven. Dry sample at 212°F (100°C) under a 30 mmHg vacuum for 30 minutes. Remove dish and sample from oven. Place dish and popcorn polymer sample in a desiccator. Cool for 1 hour and record the weight of the popcorn polymer. The weight of new polymer growth can be obtained by subtracting the original seed weight from the total popcom polymer weight.

| SMILES | %Inhibition (Table II) | Polymer formed mg/15ml (Table II) | %Inhibition (Table III) | Polymer formed mg/15ml (Table III) |
| --- | --- | --- | --- | --- |
| CC1(C)CCCC(C)(C)N1[O] [compound 7, 2,2,6,6-tetramethyl-1-piperidinyloxyl] | 50% | 550 mg/15ml | 83% | 80 mg/15ml |
| COc1cc(C(C)(C)C)c(O)c(C(C)(C)C)c1 [compound 19, 2,6-di-tert-butyl-4-methoxyphenol] |  |  | 77% | 108 mg/15ml |
| CC(C)(C)c1cc(O)ccc1O [compound 8, tert-butyl hydroquinone] | 30% | 770 mg/15ml |  |  |
